According to patent US8895637B2, “Environment-friendly antifoulants for the prevention of biofouling” (University of North Texas Health Science Center at Fort …, priority 2007, dated 2014):
Read-outs that look alike come from different tables or passages of the source.

Experiments:
zebra mussel = conditions: controlled laboratory setting; cited from earlier work
[1] = test system: zebra mussels (Dreissena polymorpha)
[2] = mixed with paint applied to a surface or applied as a dust; cited from earlier work
[3] = test system: Daphnia magna (water flea); test: non-target organism screening, Daphnia cumulative mortality; assay type: in vivo; conditions: for lethal effect / toxicity towards non-target (Daphnia) organism: at a dose that totally prevents fouling by mussels; for toxicity to other non-target organisms (water fleas, Daphnia magna): summary statement
Description: Those compounds that were determined to be highly efficacious zebra mussel antifoulants with little or no toxicity were additionally assessed for toxicity in another non-target aquatic species. The freshwater cladoceran crustacean Daphnia magna (water flea) is commonly utilized for aquatic toxicity testing (Suedel et al., 1997), with 10,583 tests of toxic end points being reported for this species on the USEPA ECOTOX web site. Three replicates of 20 adult specimens of D. magna were exposed to each compound employing a dose range that was the same or greater than that used in zebra mussel antifouling studies. The conditions for toxicity testing of water fleas were the same as those used for testing zebra mussel antifouling and toxicity (i.e., polypropylene containers at 15° C.), except that test medium volume was 40 ml and exposure was increased to three days. Dead individuals were removed every 24 h and the total number of surviving individuals was recorded at the end of 1, 2, and 3 days. Although the level of Daphnia mortality was too low in most cases, when it was high enough to be reliably estimated then the Daphnia lethal dose values (i.e., LD50) were estimated using the same methods employed in the mussel byssal attachment studies. Uniformity of test organisms was maintained by establishing a laboratory D. magna culture with specimens initially purchased from a biological supply company.

[4] = biological target: vanilloid receptor 1 (VR1) receptor (Homo sapiens, UniProt Q8NER1); conditions: cited from earlier work
Chain of vanilloid receptor 1 (VR1) receptor (Q8NER1 whole entry, species assumed): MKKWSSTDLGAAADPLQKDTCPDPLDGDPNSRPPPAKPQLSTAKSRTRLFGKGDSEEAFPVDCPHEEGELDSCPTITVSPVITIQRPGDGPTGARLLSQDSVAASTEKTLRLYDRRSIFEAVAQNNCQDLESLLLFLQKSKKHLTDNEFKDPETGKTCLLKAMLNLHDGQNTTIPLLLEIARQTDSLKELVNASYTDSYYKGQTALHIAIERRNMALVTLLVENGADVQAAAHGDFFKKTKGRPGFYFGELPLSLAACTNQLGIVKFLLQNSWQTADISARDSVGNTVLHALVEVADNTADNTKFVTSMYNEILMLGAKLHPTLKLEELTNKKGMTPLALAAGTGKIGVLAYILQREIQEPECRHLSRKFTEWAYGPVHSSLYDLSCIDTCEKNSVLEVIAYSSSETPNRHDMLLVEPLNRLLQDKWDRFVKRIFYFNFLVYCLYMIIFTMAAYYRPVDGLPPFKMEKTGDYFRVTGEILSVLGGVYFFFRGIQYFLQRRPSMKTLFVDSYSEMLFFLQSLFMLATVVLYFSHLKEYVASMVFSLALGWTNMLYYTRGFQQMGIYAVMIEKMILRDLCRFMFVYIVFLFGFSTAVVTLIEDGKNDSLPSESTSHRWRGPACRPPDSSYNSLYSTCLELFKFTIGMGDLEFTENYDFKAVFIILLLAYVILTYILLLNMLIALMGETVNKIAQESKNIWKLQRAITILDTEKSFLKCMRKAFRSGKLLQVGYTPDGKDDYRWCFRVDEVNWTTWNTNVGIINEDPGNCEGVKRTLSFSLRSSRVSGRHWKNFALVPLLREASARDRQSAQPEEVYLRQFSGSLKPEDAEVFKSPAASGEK

[5] = single high concentration (e.g., 30 μM), 48 h, FIG. 4 and FIG. 6
[6] = single high concentration (e.g., 30 μM), second 48 h post-exposure / both periods

| SMILES | residual effect to the target organism ([1]; in vivo) | zebra mussel antifouling efficacy ([1]; in vivo) | lethal effect / toxicity towards non-target (Daphnia) organism [3] | antifouling efficacy (fraction of unattached mussels during the first 48 h) ([1]; in vivo) | target organism residual effects ("toxicity") or lethality ([1]; in vivo) | other results |
| --- | --- | --- | --- | --- | --- | --- |
| COc1cc(CNC(=O)CCCC/C=C/C(C)C)ccc1O (racemic) [capsaicin, reference compound] | little residual effect | efficacious | no toxicity |  |  | zebra mussel antifoulant effect (zebra mussel): effective; toxicity to the target organism (zebra mussels) ([1]; in vivo): reduced toxicity; antifouling effectiveness compared with copper [2]: not as effective as copper; toxicity to other non-target organisms (water fleas, Daphnia magna) [3]: reduced toxicity |
| COc1ccc(C(=O)c2c(C)n(CCN3CCOCC3)c3cc(I)ccc23)cc1 [AM630] | some residual effect | efficacious | no significant lethality | efficacious | minimal | dose that totally prevents fouling by mussels ([1]; in vivo): 4 µM |
| CCCCCCC(C)(C)c1ccc([C@@H]2C[C@H](O)CC[C@@H]2CCCO)c(O)c1 [CP55,940] |  |  |  |  |  | antifouling efficacy (fraction of unattached mussels during the first 48 h) [1, 5]: efficacious; target organism residual effects ("toxicity") or lethality [1, 6]: minimal |
| CCCCC/C=C\C/C=C\CCCCCCCC(=O)NCCO [Linoleyl ethanolamide] |  |  |  | efficacious | minimal |  |
| CCCCCCCCCC(=O)NC(CC)CO (centres unmarked) [N-(1-(hydroxymethyl)propyl)decanamide] |  |  |  | efficacious | minimal |  |
| CCCCCCCCCCCC(=O)NCC(=O)NN=Cc1ccc(OC)c(OC)c1 [N-(2-(2-(3,4-dimethoxybenzylidene)hydrazine)-2-oxoethyl)dodecanamide] |  |  |  | efficacious | minimal |  |
| CC1=CC[C@H]2[C@@H](C1)c1c(O)cc(CC#CCCCNS(C)(=O)=O)cc1OC2(C)C [O-2050] |  | efficacious | no lethal effect | efficacious | minimal | residual effect at a dose that totally prevents biofouling ([1]; 6 μM): no residual effect; antifouling potency ([1]; in vivo): higher potency; dose that totally prevents fouling by mussels ([1]; in vivo): 6 µM |
| CCCCC/C=C\C/C=C\C/C=C\C/C=C\CCCC(=O)NCCO [anandamide] | no residual effect | efficacious | no lethal effect | efficacious | minimal | dose that totally prevents fouling by mussels ([1]; in vivo): 15 µM; toxicity to the target organism (zebra mussels) ([1]; in vivo): reduced toxicity; toxicity to other non-target organisms (water fleas, Daphnia magna) [3]: reduced toxicity |
| COc1cc(CNC(=O)CCCC/C=C/C(C)C)ccc1O [compound 28, 8-methyl-N-vanillyl-trans-6-nonenamide] |  |  |  | efficacious | minimal | toxicity of the stereoisomer towards the non-target (Daphnia) organism ([3]; inferred from the result for racemic capsaicin): neither stereoisomer (E or Z) is toxic |
| COc1cc(CNC(=O)CCCC/C=C\C(C)C)ccc1O [compound 29] |  |  |  | efficacious | minimal | attachment of zebra mussels to aquatic striatum ([1]; in vivo): prevents the attachment; toxicity to the target organism ([1]; in vivo): non-toxic; action on the vanilloid receptor 1 (VR1) receptor [4]: does not act on |
| CCCCC/C=C\C/C=C\C/C=C\C/C=C\CCCCOC(CO)CO [noladin ether] |  |  |  |  |  | antifouling efficacy (fraction of unattached mussels during the first 48 h) [1, 5]: efficacious; target organism residual effects ("toxicity") or lethality [1, 6]: minimal |
| CCCCCCCCC(=O)NCc1ccc(O)c(OC)c1 [pseudocapsaicin, N-vanillylnonanamide] | little residual effect | efficacious | not lethal |  |  | antifouling ([1]; 20 μM): 100%; antifouling ([1]; 30 μM): 100%; toxicity to the target organism (zebra mussels) ([1]; in vivo): reduced toxicity; Daphnia toxicity over controls ([3]; 72 h exposure, 20 and 30 μM): no measurable toxicity over controls; lethal effect / toxicity towards non-target (Daphnia) organism ([3]; listed as N-vanillylnonanamide): no significant toxicity; Daphnia mortality ([3]; highest test dose (60 μM), 72 h time point): Statistically significant Daphnia mortality; toxicity to other non-target organisms (water fleas, Daphnia magna) [3]: reduced toxicity |
